Source: ChEMBL document CHEMBL1201862, “PubChem BioAssay data set” (2004)
Calls of active or inactive are those of the source.

Columns and labels:
[1] = inhibitors of non-replicating M. tuberculosis, dose response, luciferase, dry powder (AID 651619); assay type: functional; settings: Mycobacterium tuberculosis
[2] = target: Glycogen synthase kinase-3 beta (Homo sapiens, UniProt P49841); experiment: Inhibition of Human GSK-3 beta Activity Measured in Biochemical System Using Microfluidics - 2063-05_Inhibitor_Dose_DryPowder_Activity_Set2. [Related pubchem assays (depositor defined):AID2709]
[3] = inhibitors of non-replicating M. tuberculosis, dose response, luciferase, dry powder (AID 651620); assay type: functional; settings: Mycobacterium tuberculosis
[4] = target: Glycogen synthase kinase-3 alpha (Homo sapiens, UniProt P49840); experiment: Inhibition of Human GSK-3 alpha Activity Measured in Biochemical System Using Microfluidics - 2063-06_Inhibitor_Dose_DryPowder_Activity_Set2. [Related pubchem assays (depositor defined):AID2709]
[5] = test system: Streptococcus sp. 'group A'; experiment: growth inhibition of control SK(-) GAS strain, dose response, counter-screen for streptokinase expression inhibitor project, luminescence, kanamycin, BacTiterGlo, confirmation (AID 1900); assay type: functional, organism-based
[6] = A549 cell cytotoxicity, dose response, cytotoxicity control, plate reader, cherry-pick, antagonist series (AID 743412); assay type: functional, cell-based
CAAX prenyl protease 2 = target: T1, CAAX prenyl protease 2 (Saccharomyces cerevisiae S288c, UniProt Q03530); assay type: biochemical
T1 sequence (Q03530 whole entry): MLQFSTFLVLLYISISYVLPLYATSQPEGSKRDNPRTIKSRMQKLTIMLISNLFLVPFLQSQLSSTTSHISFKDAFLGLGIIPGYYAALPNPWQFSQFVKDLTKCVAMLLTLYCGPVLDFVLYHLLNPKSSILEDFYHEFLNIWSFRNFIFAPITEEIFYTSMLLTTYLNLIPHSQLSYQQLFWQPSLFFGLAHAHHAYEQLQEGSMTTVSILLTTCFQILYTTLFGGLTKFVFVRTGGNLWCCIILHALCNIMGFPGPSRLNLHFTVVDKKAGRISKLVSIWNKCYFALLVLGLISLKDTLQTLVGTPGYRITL

CHO-K1 = experiment: (§1) Counterscreen for antagonists of the orexin 1 receptor (OX1R; HCRTR1): Homogeneous time resolved fluorescence (HTRF)-based cell-based dose response assay to identify antagonists of the parental CHO-K1 cell line. [Related pubchem assays (depositor defined):AID434989, AID435008, AID463079, AID485270, AID492963, AID492964, AID492965, AID493232, AID504699, AID504701]; assay type: functional; settings: Cricetulus griseus
Orexin receptor type 2 [7] = target: T2, Orexin receptor type 2 (Homo sapiens, UniProt O43614); experiment: Counterscreen assay for antagonists of the orexin 1 receptor (OX1R; HCRTR1): Fluorescence-based cell-based dose response assay for antagonists of the orexin 2 receptor (OX2R; HCRTR2), run by assay provider.; assay type: functional
T2 sequence (O43614 whole entry): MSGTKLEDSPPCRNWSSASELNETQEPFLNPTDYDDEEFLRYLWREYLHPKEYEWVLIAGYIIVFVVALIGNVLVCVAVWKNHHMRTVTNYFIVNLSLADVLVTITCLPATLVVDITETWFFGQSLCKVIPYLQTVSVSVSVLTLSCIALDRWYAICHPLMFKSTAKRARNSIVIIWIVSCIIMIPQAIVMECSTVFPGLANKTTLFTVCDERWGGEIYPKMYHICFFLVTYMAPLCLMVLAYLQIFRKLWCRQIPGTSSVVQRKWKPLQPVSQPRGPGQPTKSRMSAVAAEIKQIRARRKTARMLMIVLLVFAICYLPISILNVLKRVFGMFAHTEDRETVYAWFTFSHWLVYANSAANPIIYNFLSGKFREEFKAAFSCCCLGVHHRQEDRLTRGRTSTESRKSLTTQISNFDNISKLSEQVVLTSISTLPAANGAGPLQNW

Streptococcus = experiment: Group A Streptococcus viability loss, dose response, counter-screen for streptokinase expression inhibitor project, luminescence, BacTiterGlo (AID 1915); assay type: functional, organism-based;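 note: potency for reduction of bacterial viability or growth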
[8] = target: T3, Orexin/Hypocretin receptor type 1 (Homo sapiens, UniProt O43613); experiment: (§2) Fluorescence-based cell-based high throughput dose response assay for antagonists of the orexin 1 receptor (OX1R; HCRTR1). [Related pubchem assays (depositor defined):AID434989, AID435008, AID463079, AID485270, AID492963, AID492964, AID492965, AID493232, AID504717, AID504718]; assay type: functional
T3 sequence (O43613 whole entry): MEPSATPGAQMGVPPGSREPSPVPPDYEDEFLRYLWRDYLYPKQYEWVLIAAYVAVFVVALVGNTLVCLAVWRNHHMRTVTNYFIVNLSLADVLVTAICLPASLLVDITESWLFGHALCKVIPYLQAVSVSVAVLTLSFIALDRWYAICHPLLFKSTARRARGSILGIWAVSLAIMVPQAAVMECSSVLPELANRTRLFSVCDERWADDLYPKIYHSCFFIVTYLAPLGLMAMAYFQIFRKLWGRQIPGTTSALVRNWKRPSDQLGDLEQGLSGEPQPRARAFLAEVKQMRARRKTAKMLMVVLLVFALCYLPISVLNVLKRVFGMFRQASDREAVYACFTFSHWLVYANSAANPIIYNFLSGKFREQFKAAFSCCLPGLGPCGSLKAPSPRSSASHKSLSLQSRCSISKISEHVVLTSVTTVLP

[9] = HepG2 cell cytotoxicity, dose response, cytotoxicity control, plate reader, cherry-pick, antagonist series (AID 743416); assay type: functional, cell-based
[10] = as §1, with “Fluorescence-based” for “Homogeneous time resolved fluorescence (HTRF)-based”, “cell-based high throughput” for “cell-based”, “CHO” for “CHO-K1”; assay type: functional
[11] = HEK293 cell cytotoxicity, dose response, cytotoxicity control, plate reader, cherry-picked samples (AID 743446); assay type: functional, cell-based
Streptokinase A = target: T4, Streptokinase A (Streptococcus pyogenes serotype M1, UniProt P10520); experiment: S. pyogenes streptokinase expression inhibitors, potency, dose response, plasminogen activation absorbance, OD405 (AID 1914); assay type: functional, Streptococcus pyogenes M1 GAS;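 note: secreted streptokinase activity via plasminogen activation per viability signal from cell pellet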
T4 sequence (P10520 whole entry): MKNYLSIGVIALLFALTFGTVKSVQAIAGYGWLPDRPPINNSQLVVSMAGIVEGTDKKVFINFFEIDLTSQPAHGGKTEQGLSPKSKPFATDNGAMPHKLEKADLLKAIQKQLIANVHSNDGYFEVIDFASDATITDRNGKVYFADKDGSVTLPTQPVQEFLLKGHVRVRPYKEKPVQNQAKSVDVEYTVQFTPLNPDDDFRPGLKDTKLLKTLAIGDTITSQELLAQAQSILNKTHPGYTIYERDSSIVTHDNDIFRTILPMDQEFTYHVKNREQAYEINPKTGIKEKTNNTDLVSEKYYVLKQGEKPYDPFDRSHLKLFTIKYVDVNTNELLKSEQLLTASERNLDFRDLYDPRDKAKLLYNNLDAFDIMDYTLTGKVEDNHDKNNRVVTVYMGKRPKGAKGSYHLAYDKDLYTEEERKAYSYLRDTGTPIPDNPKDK

Orexin receptor type 2 [12] = target: T2, Orexin receptor type 2; experiment: Counterscreen assay for antagonists of the orexin 1 receptor (OX1R; HCRTR1): Homogeneous Time Resolved Fluorescence (HTRF)-based cell-based dose response assay for antagonists of the orexin 2 receptor (OX2R; HCRTR2), run by assay provider.; assay type: functional
[13] = MC4R antagonists, dose response, counter-screen for LGR2 antagonist project, cell-based, plate reader, cherry pick (AID 743444); assay type: functional;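 note: transfected HEK 293 cells stimulated with alpha-MSH peptide; potency of inhibitors of the alpha-MSH evoked signal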
[14] = target: T3, Orexin/Hypocretin receptor type 1; experiment: as §2, with “Homogeneous Time Resolved Fluorescence (HTRF)-based” for “Fluorescence-based”; assay type: functional
[15] = target: T5, High affinity choline transporter 1 (Homo sapiens, UniProt Q9GZV3); experiment: CHT activators, dose response, cell-based, 10-point CRC, membrane potential dye (AID 602376); assay type: functional
T5 sequence (Q9GZV3 whole entry): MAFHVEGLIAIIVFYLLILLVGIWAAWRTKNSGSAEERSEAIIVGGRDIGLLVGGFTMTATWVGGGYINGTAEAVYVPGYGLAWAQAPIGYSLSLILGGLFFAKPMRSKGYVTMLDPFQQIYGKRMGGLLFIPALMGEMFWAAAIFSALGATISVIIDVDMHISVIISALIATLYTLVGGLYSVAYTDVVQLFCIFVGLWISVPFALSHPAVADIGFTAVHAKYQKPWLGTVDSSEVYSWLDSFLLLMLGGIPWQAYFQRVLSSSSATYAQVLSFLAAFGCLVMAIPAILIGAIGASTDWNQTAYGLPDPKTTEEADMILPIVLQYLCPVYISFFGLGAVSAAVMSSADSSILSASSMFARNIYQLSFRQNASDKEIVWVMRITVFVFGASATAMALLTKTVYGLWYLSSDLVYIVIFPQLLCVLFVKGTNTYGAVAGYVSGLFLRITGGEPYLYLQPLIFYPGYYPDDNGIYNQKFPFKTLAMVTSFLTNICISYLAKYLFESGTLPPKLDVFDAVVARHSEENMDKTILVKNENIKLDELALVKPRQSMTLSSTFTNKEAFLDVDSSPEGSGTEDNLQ

Chain of Glycogen synthase kinase-3 alpha (P49840 whole entry): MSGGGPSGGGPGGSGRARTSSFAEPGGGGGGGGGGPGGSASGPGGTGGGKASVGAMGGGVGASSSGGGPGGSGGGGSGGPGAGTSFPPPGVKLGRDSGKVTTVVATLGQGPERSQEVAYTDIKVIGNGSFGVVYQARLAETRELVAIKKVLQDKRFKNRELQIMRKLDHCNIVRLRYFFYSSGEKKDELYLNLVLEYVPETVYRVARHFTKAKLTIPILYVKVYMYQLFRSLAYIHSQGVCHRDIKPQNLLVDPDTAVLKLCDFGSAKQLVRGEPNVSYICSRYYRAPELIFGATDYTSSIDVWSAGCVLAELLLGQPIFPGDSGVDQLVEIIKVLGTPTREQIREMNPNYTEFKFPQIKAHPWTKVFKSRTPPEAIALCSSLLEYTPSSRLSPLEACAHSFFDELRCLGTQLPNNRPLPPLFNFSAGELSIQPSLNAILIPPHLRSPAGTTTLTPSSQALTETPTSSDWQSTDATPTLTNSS
Chain of Glycogen synthase kinase-3 beta (P49841 whole entry): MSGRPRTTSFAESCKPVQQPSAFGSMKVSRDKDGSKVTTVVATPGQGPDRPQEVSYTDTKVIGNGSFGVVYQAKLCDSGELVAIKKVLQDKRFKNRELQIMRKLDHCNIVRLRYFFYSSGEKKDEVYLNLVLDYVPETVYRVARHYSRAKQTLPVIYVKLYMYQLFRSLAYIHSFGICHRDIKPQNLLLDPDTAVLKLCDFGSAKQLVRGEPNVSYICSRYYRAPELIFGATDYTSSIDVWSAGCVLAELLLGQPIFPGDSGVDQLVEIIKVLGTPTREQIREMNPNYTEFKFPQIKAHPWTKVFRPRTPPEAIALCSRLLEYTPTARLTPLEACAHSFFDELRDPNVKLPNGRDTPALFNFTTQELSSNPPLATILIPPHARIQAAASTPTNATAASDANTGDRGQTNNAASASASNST

Fc1ccc(CSc2nnc(-c3ccncc3)o2)cc1
active: IC90 [1] 4 µM | AC50 [2] 0.578 µM | IC90 [3] 4 µM | AC50 [4] 3.37 µM

O=[N+]([O-])c1ccc(-c2c[nH]c(SC(c3ccccc3)c3ccccc3)n2)cc1
active: EC50 [5] 6.07 µM | AC50 [6] 19 µM | AC50 (CAAX prenyl protease 2) 2.05 µM | IC50 [8] 7.34 µM | AC50 [9] 19.1 µM | AC50 [11] 22.2 µM | EC50 (Streptokinase A) 15.2 µM | AC50 [13] 7.88 µM | IC50 [14] 5.72 µM
> 150 µM (not active): EC50 (Streptococcus)
inactive: IC50 (CHO-K1) > 66.2 µM | IC50 (Orexin receptor type 2 [7]) 29.7 µM | IC50 [10] 32.6 µM | IC50 (Orexin receptor type 2 [12]) > 50 µM

CC(C)c1ccccc1NC(=O)Cn1c(-c2ccccc2Cl)nc2ccccc21
active: EC50 [15] 18.3 µM

O=[N+]([O-])c1cccc(-c2nc(-c3cccs3)c(-c3cccs3)[nH]2)c1
inactive: IC50 (CHO-K1) > 66.2 µM | IC50 (Orexin receptor type 2 [7]) 28.8 µM | IC50 [10] > 49.8 µM
active: IC50 [8] > 5.53 µM | IC50 (Orexin receptor type 2 [12]) 3.2 µM | IC50 [14] 6.65 µM
